Experimental data reported in patent publication US20150045284A1 (priority 2011, published 2015).

What was measured:
[1] = target: LpCopA (Legionella pneumophila Cu^+ transporting P-type ATPase) (Legionella pneumophila subsp. pneumophila, UniProt Q5ZWR1); conditions: for Measured LpCopA activity in the presence of different ions (relative ATPase activity): 100 μM CuCl2 or AgNo3, 1 mg/mL E. coli total lipid extract, 20 mM cysteine, TTM background subtracted
[2] = target: HMBD-truncated LpCopA (Legionella pneumophila subsp. pneumophila, UniProt Q5ZWR1)
Chain of HMBD-truncated LpCopA (Q5ZWR1 75-736 limits assumed): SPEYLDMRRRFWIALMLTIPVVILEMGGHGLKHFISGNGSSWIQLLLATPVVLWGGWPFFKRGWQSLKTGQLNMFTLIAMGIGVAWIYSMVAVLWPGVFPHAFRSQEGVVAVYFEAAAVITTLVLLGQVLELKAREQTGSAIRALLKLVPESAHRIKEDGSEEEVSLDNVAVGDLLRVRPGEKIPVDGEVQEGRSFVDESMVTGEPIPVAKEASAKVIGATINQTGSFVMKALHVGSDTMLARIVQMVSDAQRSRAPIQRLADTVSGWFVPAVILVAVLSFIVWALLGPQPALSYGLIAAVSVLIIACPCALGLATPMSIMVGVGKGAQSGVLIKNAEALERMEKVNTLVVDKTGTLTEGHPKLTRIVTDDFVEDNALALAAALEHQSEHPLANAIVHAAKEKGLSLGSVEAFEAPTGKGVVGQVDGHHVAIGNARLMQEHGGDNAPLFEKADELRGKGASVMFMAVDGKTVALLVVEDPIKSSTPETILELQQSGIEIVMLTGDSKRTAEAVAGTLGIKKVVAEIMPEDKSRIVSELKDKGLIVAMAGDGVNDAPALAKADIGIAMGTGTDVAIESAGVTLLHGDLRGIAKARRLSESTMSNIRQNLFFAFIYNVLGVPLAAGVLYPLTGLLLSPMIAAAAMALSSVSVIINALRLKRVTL

Chain of LpCopA (Legionella pneumophila Cu^+ transporting P-type ATPase) (Q5ZWR1 whole entry, looked up, the tested form may be a part): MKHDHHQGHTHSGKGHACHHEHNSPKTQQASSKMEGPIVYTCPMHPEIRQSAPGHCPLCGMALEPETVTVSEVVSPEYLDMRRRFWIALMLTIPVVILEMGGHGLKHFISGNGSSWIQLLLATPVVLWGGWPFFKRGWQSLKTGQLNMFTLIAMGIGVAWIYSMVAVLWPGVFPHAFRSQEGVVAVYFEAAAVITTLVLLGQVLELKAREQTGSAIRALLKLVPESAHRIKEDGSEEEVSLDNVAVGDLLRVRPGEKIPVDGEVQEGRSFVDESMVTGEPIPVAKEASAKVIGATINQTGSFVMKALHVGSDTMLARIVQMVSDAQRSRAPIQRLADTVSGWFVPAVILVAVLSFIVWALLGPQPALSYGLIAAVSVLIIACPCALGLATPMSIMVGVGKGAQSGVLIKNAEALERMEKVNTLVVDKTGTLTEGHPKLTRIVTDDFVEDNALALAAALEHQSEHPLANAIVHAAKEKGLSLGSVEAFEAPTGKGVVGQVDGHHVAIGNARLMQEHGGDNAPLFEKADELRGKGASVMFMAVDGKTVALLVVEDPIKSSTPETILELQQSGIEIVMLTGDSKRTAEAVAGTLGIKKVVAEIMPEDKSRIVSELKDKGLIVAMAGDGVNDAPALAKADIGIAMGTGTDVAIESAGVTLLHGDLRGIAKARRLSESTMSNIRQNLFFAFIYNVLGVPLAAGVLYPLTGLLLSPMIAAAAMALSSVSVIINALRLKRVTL

SMILES: [Ag+] [Ag^+]
- Measured LpCopA activity in the presence of different ions (relative ATPase activity) [1]: clearly stimulate ATPase activity

SMILES: [Cl][Cu][Cl] [CuCl2]
- CuCl2 concentration of optimum ATPase activity [2]: about 1 mM
- CuCl2 concentration of highest ATPase activity ([1]; full-length LpCopA, 10 nM to 10 mM CuCl2 incl. 10 μM TTM, appears inhibited above): 1 mM

SMILES: [Cu+] [Cu^+]
- Measured LpCopA activity in the presence of different ions (relative ATPase activity) [1]: clearly stimulate ATPase activity
